Measurements as given in ChEMBL document CHEMBL1154015, “Structural and theoretical studies of [6-bromo-1-(4-fluorophenylmethyl)-4(1H)-quinolinon-3-yl)]-4-hydroxy-2-oxo-3-butenoïc acid as HIV-1 integrase inhibitor” (Bioorg Med Chem Lett, 2009).

Legend:
[1] = Selectivity index, ratio of CC50 for human TZM-bl cells to EC50 for HIV1 NL4-3; assay type: toxicity, cell-based; details: read-out: Ratio CC50/EC50
[2] = Cytotoxicity against HIV1 NL4-3 infected human TZM-bl cells assessed as reduction in cell viability after 3 days by WST1 assay; assay type: cell-based; details: HIV1 NL4-3 infected TZM-bl cells
[3] = tested on: Human immunodeficiency virus 1; assay: Antiviral activity against HIV1 NL4-3 infected in human TZM-bl cells treated 4 hrs before infection measured after 48 hrs postinfection by beta-D-galactopyranoside assay; assay type: functional, organism-based; details: Human immunodeficiency virus 1, NL4-3, TZM-bl
[4] = molecular target: T1, Human immunodeficiency virus type 1 integrase (Human immunodeficiency virus 1, UniProt Q7ZJM1); assay: Inhibition of HIV1 integrase 3'-processing activity expressed in Escherichia coli BL21 (DE3) by gel based assay in presence of magnesium
T1 sequence (Q7ZJM1 whole entry): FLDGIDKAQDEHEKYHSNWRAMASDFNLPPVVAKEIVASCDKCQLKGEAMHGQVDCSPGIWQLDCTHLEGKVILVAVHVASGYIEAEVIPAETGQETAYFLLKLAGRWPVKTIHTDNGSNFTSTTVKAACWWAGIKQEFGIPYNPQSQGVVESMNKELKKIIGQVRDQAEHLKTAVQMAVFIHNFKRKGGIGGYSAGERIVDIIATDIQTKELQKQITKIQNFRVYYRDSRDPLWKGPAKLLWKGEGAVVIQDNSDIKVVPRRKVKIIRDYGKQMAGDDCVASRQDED

[5] = molecular target: T1, Human immunodeficiency virus type 1 integrase; assay: Inhibition of HIV1 integrase strand transfer activity expressed in Escherichia coli BL21 (DE3) by gel based assay in presence of magnesium

Row | EC50 [3] | IC50 [4] | IC50 [5] | SMILES | selectivity ratio [1] | CC50 at 72 h [2]
1 | 17 µM | 78 µM | 0.12 µM | CCOC(=O)C(=O)CC(=O)c1cn(Cc2ccc(F)cc2)c2ccc(Br)cc2c1=O | > 59 | > 1000 µM
2 | 4 µM | 1.6 µM | 0.03 µM | O=C(O)C(=O)CC(=O)c1cn(Cc2ccc(F)cc2)c2ccc(Br)cc2c1=O | > 250 | > 1000 µM
